Measured values as given in patent US20240190892A1, “PLASMA KALLIKREIN INHIBITORS” (Merck Sharp & Dohme LLC, priority 2021, published 2024).

Assays:
Coagulation factor XIa = Coagulation factor XIa (Homo sapiens (Human), UniProt P03951); test: Factor XIa Assay; assay type: biochemical; conditions: human factor XIa 0.04 nM, substrate GPR-AFC, 30 min pre-incubation at 25° C., pH 7.4; read-out: FXIa IC50
Procedure: (§1) The effectiveness of a compound of the present invention as an inhibitor of Coagulation factor XIa can be determined using a relevant purified serine protease, and an appropriate synthetic substrate. The rate of hydrolysis of the chromogenic or fluorogenic substrate by the relevant serine protease was measured both in the absence and presence of compounds of the present invention. Assays were conducted at rt or at 37° C. […] A decrease in the rate of fluorescence change in the presence of inhibitor is indicative of enzyme inhibition. Such methods are known to one skilled in the art. The results of this assay are expressed as the half-maximal inhibitory concentrations (IC50), or the inhibitory constant, Ki.
Compounds were pre-incubated for 30 min at 25° C. with human (0.04 nM) factor XIa in 50 mM HEPES buffer with 150 mM sodium chloride, 5 mM calcium chloride, 0.1% PEG 8000, pH 7.4. factor XIa enzymatic activity was determined by addition of the substrate glycine-proline-arginine-7-amido-4-trifluoromethylcoumarin (GPR-AFC) and measurement of the fluorescence at 400/505 nm after a 60 min incubation at 25° C. The % inhibition for each data point was calculated from the data and analyzed using the log (inhibitor) vs. response four parameters equation to determine the half-maximal inhibitory concentrations (IC50). The IC50 were converted to equilibrium inhibitory constants (Ki) using the Cheng-Prusoff equation.

Human plasma kallikrein = Human plasma kallikrein (Homo sapiens (Human), UniProt P03952); test: Plasma Kallikrein Assay; assay type: biochemical; conditions: purified Human plasma kallikrein 0.5 nM, substrate Acetyl-K-P-R-AFC, pH 7.4; read-out: PKal IC50
Sequence of Human plasma kallikrein (P03952 391-638 limits assumed): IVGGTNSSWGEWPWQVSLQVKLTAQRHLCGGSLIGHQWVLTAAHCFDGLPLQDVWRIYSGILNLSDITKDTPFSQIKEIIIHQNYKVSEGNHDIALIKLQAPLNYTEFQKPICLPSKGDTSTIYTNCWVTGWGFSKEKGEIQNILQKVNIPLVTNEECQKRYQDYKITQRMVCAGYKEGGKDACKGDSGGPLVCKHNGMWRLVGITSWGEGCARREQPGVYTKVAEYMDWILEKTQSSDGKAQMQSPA
Sequence of Human plasma kallikrein (P03952 20-390 partner limits assumed): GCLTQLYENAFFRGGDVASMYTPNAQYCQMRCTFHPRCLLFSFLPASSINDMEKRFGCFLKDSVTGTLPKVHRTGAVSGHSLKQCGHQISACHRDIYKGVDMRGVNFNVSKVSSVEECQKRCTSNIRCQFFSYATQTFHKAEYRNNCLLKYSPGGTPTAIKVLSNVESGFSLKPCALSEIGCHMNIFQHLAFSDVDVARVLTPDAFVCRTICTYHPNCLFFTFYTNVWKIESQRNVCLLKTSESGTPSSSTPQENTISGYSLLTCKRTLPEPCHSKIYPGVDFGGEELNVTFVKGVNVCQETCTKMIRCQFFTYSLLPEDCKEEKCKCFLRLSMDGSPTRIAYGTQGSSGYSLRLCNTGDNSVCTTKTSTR
Procedure: as §1, with “plasma kallikrein” for “Coagulation factor XIa”
Plasma kallikrein determinations were made in 50 mM HEPES buffer at pH 7.4 containing 150 mM NaCl, 5 mM CaCl2, and 0.1% PEG 8000 (polyethylene glycol; Fisher Scientific). Determinations were made using purified Human plasma kallikrein at a final concentration of 0.5 nM (Enzyme Research Laboratories) and the synthetic substrate, Acetyl-K-P-R-AFC (Sigma #C6608) at a concentration of […].
Activity assays were performed by diluting a stock solution of substrate at least tenfold to a final concentration ≤0.2 Km into a solution containing enzyme or enzyme equilibrated with inhibitor. Times required to achieve equilibration between enzyme and inhibitor were determined in control experiments. The reactions were performed under linear progress curve conditions and fluorescence increase measured at 405 Ex/510 Em nm. Values were converted to percent inhibition of the control reaction (after subtracting 100% Inhibition value). IC50 was determined by inflection point from a four parameter logistic curve fit. Ki was calculated using the Cheng Prusoff equation, Ki=IC50/(1+[S]/Km)).

Sequence of Coagulation factor XIa (P03951 388-625 limits assumed): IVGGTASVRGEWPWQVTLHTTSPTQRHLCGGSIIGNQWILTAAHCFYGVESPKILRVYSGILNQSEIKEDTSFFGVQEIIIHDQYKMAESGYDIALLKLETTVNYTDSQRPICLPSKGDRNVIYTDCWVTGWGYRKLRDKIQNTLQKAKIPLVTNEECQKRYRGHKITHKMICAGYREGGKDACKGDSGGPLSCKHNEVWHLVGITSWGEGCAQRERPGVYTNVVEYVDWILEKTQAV
Sequence of Coagulation factor XIa (P03951 19-387 partner limits assumed): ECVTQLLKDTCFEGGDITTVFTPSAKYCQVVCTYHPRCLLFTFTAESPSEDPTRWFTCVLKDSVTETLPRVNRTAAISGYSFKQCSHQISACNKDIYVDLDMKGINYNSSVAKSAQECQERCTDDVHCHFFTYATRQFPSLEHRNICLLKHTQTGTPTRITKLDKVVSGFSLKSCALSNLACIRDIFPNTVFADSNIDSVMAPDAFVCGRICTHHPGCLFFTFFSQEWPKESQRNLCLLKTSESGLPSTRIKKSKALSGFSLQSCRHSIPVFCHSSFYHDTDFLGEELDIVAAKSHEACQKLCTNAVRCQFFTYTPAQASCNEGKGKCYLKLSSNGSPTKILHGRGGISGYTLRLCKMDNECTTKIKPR

IC50 (Coagulation factor XIa) [µM] | IC50 (Human plasma kallikrein) [µM] | Structure (SMILES)
10 | 0.0163 | O=C1Nc2ccc(Cl)c(F)c2[C@]2(CCN(c3cc(C(=O)NCc4ccc(Cn5ccccc5=O)cc4)cnn3)C2)O1 [Example 17, (S)-6-(6-Chloro-5-fluoro-2-oxo-1,2-dihydrospiro[benzo[d][1,3]oxazine-4,3′-pyrrolidin]-1′-yl)-N-(4-((2-oxopyridin-1(2H)-yl)methyl)benzyl)pyridazine-4-carboxamide]
10 | 0.0128 | Cc1cnn(Cc2ccc(CNC(=O)c3cncc(N4CC[C@]5(C4)OC(=O)Nc4ccc(Cl)c(F)c45)n3)cc2)c1 [Example 18, (S)-6-(6-Chloro-5-fluoro-2-oxo-1,2-dihydrospiro[benzo[d][1,3]oxazine-4,3′-pyrrolidin]-1′-yl)-N-(4-((4-methyl-1H-pyrazol-1-yl)methyl)benzyl)pyrazine-2-carboxamide]
10 | 0.0256 | Cc1cnn(Cc2ccc(CNC(=O)c3cc(N4CC[C@]5(C4)OC(=O)Nc4ccc(Cl)c(F)c45)ncn3)cc2)c1 [Example 19, (S)-6-(6-Chloro-5-fluoro-2-oxo-1,2-dihydrospiro[benzo[d][1,3]oxazine-4,3′-pyrrolidin]-1′-yl)-N-(4-((4-methyl-1H-pyrazol-1-yl)methyl)benzyl)pyrimidine-4-carboxamide]
10 | 0.0013 | Cc1cnn(Cc2ccc(CNC(=O)c3cncc(N4CC[C@]5(C4)OC(=O)Nc4ccc(Cl)c(F)c45)c3)cn2)c1 [Example 20, (S)-5-(6-Chloro-5-fluoro-2-oxo-1,2-dihydrospiro[benzo[d][1,3]oxazine-4,3′-pyrrolidin]-1′-yl)-N-((6-((4-methyl-1H-pyrazol-1-yl)methyl)pyridin-3-yl)methyl)nicotinamide]
10 | 0.0023 | Cc1cnn(Cc2ccc(CNC(=O)c3cncc(N4CC[C@]5(C4)OC(=O)Nc4ccc(Cl)c(F)c45)n3)cn2)c1 [Example 21, (S)-6-(6-Chloro-5-fluoro-2-oxo-1,2-dihydrospiro[benzo[d][1,3]oxazine-4,3′-pyrrolidin]-1′-yl)-N-((6-((4-methyl-1H-pyrazol-1-yl)methyl)pyridin-3-yl)methyl)pyrazine-2-carboxamide]
10 | 0.0047 | Cc1cnn(Cc2ccc(CNC(=O)c3ccnc(N4CC[C@]5(C4)OC(=O)Nc4ccc(Cl)c(F)c45)c3)cc2)c1 [Example 22, (S)-2-(6-Chloro-5-fluoro-2-oxo-1,2-dihydrospiro[benzo[d][1,3]oxazine-4,3′-pyrrolidin]-1′-yl)-N-(4-((4-methyl-1H-pyrazol-1-yl)methyl)benzyl)isonicotinamide]
10 | 0.0005 | Cc1cnn(Cc2ccc(CNC(=O)c3cnnc(N4CC[C@]5(C4)OC(=O)Nc4ccc(Cl)c(F)c45)c3)cc2)c1 [Example 23, (S)-6-(6-Chloro-5-fluoro-2-oxo-1,2-dihydrospiro[benzo[d][1,3]oxazine-4,3′-pyrrolidin]-1′-yl)-N-(4-((4-methyl-1H-pyrazol-1-yl)methyl)benzyl)pyridazine-4-carboxamide]
10 | 0.0136 | Cc1cnn(Cc2ccc(CNC(=O)c3ccnc(N4CC[C@]5(C4)OC(=O)Nc4ccc(Cl)c(F)c45)n3)cc2)c1 [Example 24, (S)-2-(6-Chloro-5-fluoro-2-oxo-1,2-dihydrospiro[benzo[d][1,3]oxazine-4,3′-pyrrolidin]-1′-yl)-N-(4-((4-methyl-1H-pyrazol-1-yl)methyl)benzyl)pyrimidine-4-carboxamide]
10 | 0.0165 | Cc1cnn(Cc2ccc(CNC(=O)c3cc(N4CC[C@]5(C4)OC(=O)Nc4ccc(Cl)c(F)c45)ccn3)cc2)c1 [Example 25, (S)-4-(6-Chloro-5-fluoro-2-oxo-1,2-dihydrospiro[benzo[d][1,3]oxazine-4,3′-pyrrolidin]-1′-yl)-N-(4-((4-methyl-1H-pyrazol-1-yl)methyl)benzyl)picolinamide]
10 | 0.0031 | Cc1cnn(Cc2ccc(CNC(=O)c3cncc(N4CC[C@]5(C4)OC(=O)Nc4ccc(Cl)c(F)c45)c3)cc2)c1 [Example 26, (S)-5-(6-Chloro-5-fluoro-2-oxo-1,2-dihydrospiro[benzo[d][1,3]oxazine-4,3′-pyrrolidin]-1′-yl)-N-(4-((4-methyl-1H-pyrazol-1-yl)methyl)benzyl)nicotinamide]
10 | 0.0143 | COCC1CN(c2ccc(CNC(=O)c3cnnc(N4CC[C@]5(C4)OC(=O)Nc4ccc(Cl)c(F)c45)c3)cn2)C1 [Example 27, (S)-6-(6-Chloro-5-fluoro-2-oxo-1,2-dihydrospiro[benzo[d][1,3]oxazine-4,3′-pyrrolidin]-1′-yl)-N-((6-(3-(methoxymethyl)azetidin-1-yl)pyridin-3-yl)methyl)pyridazine-4-carboxamide]
10 | 0.0019 | CN1CCN(c2ccc(CNC(=O)c3cnnc(N4CC[C@]5(C4)OC(=O)Nc4ccc(Cl)c(F)c45)c3)cn2)CC1 [Example 28, (S)-6-(6-Chloro-5-fluoro-2-oxo-1,2-dihydrospiro[benzo[d][1,3]oxazine-4,3′-pyrrolidin]-1′-yl)-N-((6-(4-methylpiperazin-1-yl)pyridin-3-yl)methyl)pyridazine-4-carboxamide]
10 | 0.005 | O=C1Nc2ccc(Cl)c(F)c2[C@]2(CCN(c3cc(C(=O)NCc4ccc(N5CCOCC5)nc4)cnn3)C2)O1 [Example 29, (S)-6-(6-Chloro-5-fluoro-2-oxo-1,2-dihydrospiro[benzo[d][1,3]oxazine-4,3′-pyrrolidin]-1′-yl)-N-((6-morpholinopyridin-3-yl)methyl)pyridazine-4-carboxamide]
10 | 0.0209 | O=C1Nc2ccc(Cl)c(F)c2[C@]2(CCN(c3cncc(C(=O)NCc4ccc5ccc(=O)oc5c4)n3)C2)O1 [Example 30, (S)-6-(6-Chloro-5-fluoro-2-oxo-1,2-dihydrospiro[benzo[d][1,3]oxazine-4,3′-pyrrolidin]-1′-yl)-N-((2-oxo-2H-chromen-7-yl)methyl)pyrazine-2-carboxamide]
10 | 0.0086 | O=C1Nc2ccc(Cl)c(F)c2[C@]2(CCN(c3cncc(C(=O)NCc4ccc5c(n4)NCCC5)n3)C2)O1 [Example 31, (S)-6-(6-Chloro-5-fluoro-2-oxo-1,2-dihydrospiro[benzo[d][1,3]oxazine-4,3′-pyrrolidin]-1′-yl)-N-((5,6,7,8-tetrahydro-1,8-naphthyridin-2-yl)methyl)pyrazine-2-carboxamide]
10 | 0.019 | Nc1nccc2cc(CNC(=O)c3cncc(N4CC[C@]5(C4)OC(=O)Nc4ccc(Cl)c(F)c45)n3)ccc12 [Example 32, (S)-N-((1-Aminoisoquinolin-6-yl)methyl)-6-(6-chloro-5-fluoro-2-oxo-1,2-dihydrospiro[benzo[d][1,3]oxazine-4,3′-pyrrolidin]-1′-yl)pyrazine-2-carboxamide]
10 | 0.0254 | O=C1Nc2ccc(Cl)c(F)c2[C@]2(CCN(c3cncc(C(=O)NCc4ccc(N5CC(F)C5)nc4)n3)C2)O1 [Example 33, (S)-6-(6-Chloro-5-fluoro-2-oxo-1,2-dihydrospiro[benzo[d][1,3]oxazine-4,3′-pyrrolidin]-1′-yl)-N-((6-(3-fluoroazetidin-1-yl)pyridin-3-yl)methyl)pyrazine-2-carboxamide]
10 | 0.0054 | COCC1CN(c2ccc(CNC(=O)c3cncc(N4CC[C@]5(C4)OC(=O)Nc4ccc(Cl)c(F)c45)n3)cn2)C1 [Example 34, (S)-6-(6-Chloro-5-fluoro-2-oxo-1,2-dihydrospiro[benzo[d][1,3]oxazine-4,3′-pyrrolidin]-1′-yl)-N-((6-(3-(methoxymethyl)azetidin-1-yl)pyridin-3-yl)methyl)pyrazine-2-carboxamide]
